Test results from patent US8318725B2, “Aryl indolyl sulfonamide compounds and their use as 5-HT6 ligands” (Suven Life Sciences Limited, priority 2008, dated 2012).
Where a name gives a salt, the structure may show the parent alone.

Assays:
Human 5-HT6 receptor = biological target: T1, Human 5-HT6 receptor (Homo sapiens, UniProt P50406); assay: Binding assay for human 5-HT6 receptor ([3H] LSD radioligand); conditions: [3H] LSD 1.5 nM, human recombinant receptor in HEK293 cells; for inhibition at 0.1 µM: read-out: % Inhibition of specific binding at 100 nM
T1 construct: expressed in transfected cells; host or cells: HEK293
Method: Binding Assay for Human 5-HT6 Receptor
Compounds can be tested according to the following the procedures. Materials and Methods:
Receptor source: Human recombinant expressed in HEK293 cells
Radioligand: [^3H] LSD (60-80 Ci/mmol)
Final ligand concentration—[1.5 nM]
Non-specific determinant: Methiothepin mesylate—[0.1 μM]
Reference compound: Methiothepin mesylate
Positive control: Methiothepin mesylate
Reactions were carried out in […] TRIS-HCl (pH 7.4) containing 10 μM MgCl2, 0.5 mM EDTA for 60 minutes at 37° C. The reaction was terminated by rapid vacuum filtration onto glass fiber filters. Radioactivity trapped onto the filters was determined and compared to control values in order to ascertain any interactions of test compound(s) with the cloned serotonin 5-HT6binding site.
Literature Reference: Monsma F. J. Jr., et al., Molecular Cloning and Expression of Novel Serotonin Receptor with High Affinity for Tricyclic Psychotropic Drugs. Mol. Pharmacol. (43): 320-327 (1993).

T1 sequence (P50406 whole entry): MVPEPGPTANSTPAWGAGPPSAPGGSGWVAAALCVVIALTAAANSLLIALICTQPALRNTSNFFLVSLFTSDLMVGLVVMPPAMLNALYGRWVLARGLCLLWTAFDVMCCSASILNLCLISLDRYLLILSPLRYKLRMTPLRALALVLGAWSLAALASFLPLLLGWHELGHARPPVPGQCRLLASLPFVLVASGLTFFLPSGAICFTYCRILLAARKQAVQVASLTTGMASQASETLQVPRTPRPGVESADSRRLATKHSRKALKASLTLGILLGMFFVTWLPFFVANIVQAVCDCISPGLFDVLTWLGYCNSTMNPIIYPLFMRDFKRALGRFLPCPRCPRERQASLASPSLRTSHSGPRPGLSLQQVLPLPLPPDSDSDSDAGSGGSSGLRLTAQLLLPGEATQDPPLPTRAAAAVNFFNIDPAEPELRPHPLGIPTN

## COc1ccc2c(c1)c(C)cn2S(=O)(=O)c1ccc(Cl)c(CN2CCN(C)CC2)c1.Cl.Cl
other
  melting point: 213.3 to 214.2 °C

## COc1ccc2c(ccn2S(=O)(=O)c2cccc(CN3CCN(C)CC3)c2)c1 [Example 9, 5-Methoxy-1-[3-(4-methylpiperazin-1-ylmethyl)benzenesulfonyl]-1H-indole]
Human 5-HT6 receptor; 100 nM test compound
  inhibition at 0.1 µM: 67.6%

## CN1CCN(Cc2cccc(S(=O)(=O)n3ccc4cc(F)ccc43)c2)CC1 [Example 10, 5-Fluoro-1-[3-(4-methylpiperazin-1-ylmethyl)benzenesulfonyl]-1H-indole]
Human 5-HT6 receptor; 100 nM test compound
  inhibition at 0.1 µM: 79.2%

## CCN1CCN(Cc2cc(S(=O)(=O)n3cc(C)c4ccccc43)ccc2Br)CC1.Cl.Cl [Example 39, 1-[4-Bromo-3-(4-ethylpiperazin-1-ylmethyl)benzenesulfonyl]-3-methyl-1H-indole dihydrochloride]
Human 5-HT6 receptor; 100 nM test compound
  inhibition at 0.1 µM: 91.5%
other
  melting point: 204.1 to 206.5 °C

## COc1ccc2c(c1)c(C)cn2S(=O)(=O)c1ccc(Br)c(CN2CCN(C)CC2)c1.Cl.Cl
other
  melting point: 214.3 to 215.7 °C

## CN1CCN(Cc2cc(S(=O)(=O)n3cc(Br)c4cc(F)ccc43)ccc2Cl)CC1 [Example 5, 1-[4-Chloro-3-(4-methylpiperazin-1-ylmethyl)benzenesulfonyl]-5-fluoro-3-bromo-1H-indole]
other
  melting point: 161.3 to 162.6 °C

## CCN1CCN(Cc2cc(S(=O)(=O)n3ccc4cc(F)ccc43)ccc2C)CC1.Cl.Cl [Example 44, 1-[4-Methyl-3-(4-ethylpiperazin-1-ylmethyl)benzenesulfonyl]-5-fluoro-1H-indole dihydrochloride]
Human 5-HT6 receptor; 100 nM test compound
  inhibition at 0.1 µM: 78.5%
other
  melting point: 203.4 to 206.2 °C

## CCOc1ccc2c(ccn2S(=O)(=O)c2cccc(CN3CCN(C)CC3)c2)c1 [Example 11, 5-Ethoxy-1-[3-(4-methylpiperazin-1-ylmethyl)benzenesulfonyl]-1H-indole]
Human 5-HT6 receptor; 100 nM test compound
  inhibition at 0.1 µM: 63.7%

## Cc1cn(S(=O)(=O)c2ccc(Cl)c(CN3CCCN(C)CC3)c2)c2ccccc12 [Example 46, 1-[4-Chloro-3-(4-methyl[1,4]diazepan-1-ylmethyl)benzenesulfonyl]-3-methyl-1H-indole dihydrochloride]
Human 5-HT6 receptor; 100 nM test compound
  inhibition at 0.1 µM: 92.2%

## CN1CCN(Cc2cc(S(=O)(=O)n3ccc4cc(F)ccc43)ccc2Br)CC1.Cl.Cl
other
  melting point: 219.4 to 221.6 °C

## Cc1cn(S(=O)(=O)c2ccc(Br)c(CN3CCN(C)CC3)c2)c2ccccc12.Cl.Cl [Example 38, 1-[4-Bromo-3-(4-methylpiperazin-1-ylmethyl)benzenesulfonyl]-3-methyl-1H-indole dihydrochloride]
Human 5-HT6 receptor
  Ki: 9.11 nM
other
  melting point: 210.5 to 213 °C

## COc1ccc2c(ccn2S(=O)(=O)c2ccc(Cl)c(CN3CCN(C)CC3)c2)c1.Cl.Cl [Example 16, 1-[4-Chloro-3-(4-methylpiperazin-1-ylmethyl)benzenesulfonyl]-5-methoxy-1H-indole dihydrochloride]
Human 5-HT6 receptor; 100 nM test compound
  inhibition at 0.1 µM: 42%
other
  melting point: 208.8 to 210.2 °C

## CCN1CCN(Cc2cc(S(=O)(=O)n3cc(C)c4ccccc43)ccc2Cl)CC1.Cl.Cl
other
  melting point: 218.9 to 220.5 °C

## CCN1CCCN(Cc2cc(S(=O)(=O)n3cc(C)c4ccccc43)ccc2Cl)CC1 [Example 45, 1-[4-Chloro-3-(4-ethyl-[1,4]diazepan-1-ylmethyl)benzenesulfonyl]-3-methyl-1H-indole dihydrochloride]
Human 5-HT6 receptor; 100 nM test compound
  inhibition at 0.1 µM: 98.5%

## CCN1CCN(Cc2cc(S(=O)(=O)n3cc(C)c4cc(OC)ccc43)ccc2C)CC1.Cl.Cl
other
  melting point: 226.99 °C

## CCN1CCN(Cc2cc(S(=O)(=O)n3ccc4cc(F)ccc43)ccc2Cl)CC1.Cl.Cl [Example 25, 1-[4-Chloro-3-(4-ethylpiperazin-1-ylmethyl)benzenesulfonyl]-5-fluoro-1H-indole dihydrochloride]
Human 5-HT6 receptor; 100 nM test compound
  inhibition at 0.1 µM: 64.8%
other
  melting point: 204.1 to 205.5 °C

## Cc1ccc(S(=O)(=O)n2ccc3cc(F)ccc32)cc1CN1CCN(C)CC1.Cl.Cl [Example 43, 1-[4-Methyl-3-(4-methylpiperazin-1-ylmethyl)benzenesulfonyl]-5-fluoro-1H-indole dihydrochloride]
Human 5-HT6 receptor; 100 nM test compound
  inhibition at 0.1 µM: 86.2%
other
  melting point: 220.3 to 223.4 °C

## CCN1CCN(Cc2cc(S(=O)(=O)n3ccc4ccccc43)ccc2Br)CC1 [Example 1, 1-1-[4-Bromo-3-(4-ethylpiperazin-1-ylmethyl)benzenesulfonyl]-1H-indole]
Human 5-HT6 receptor; 100 nM test compound
  % Inhibition of specific binding at 100 nM: 78.91%

## CCN1CCN(Cc2cc(S(=O)(=O)n3ccc4ccccc43)ccc2Cl)CC1.Cl.Cl [Example 15, 1-[4-Chloro-3-(4-ethylpiperazin-1-ylmethyl)benzenesulfonyl]-1H-indole dihydrochloride]
Human 5-HT6 receptor
  Ki: 18.4 nM
other
  melting point: 196 to 197.1 °C

## CCN1CCN(Cc2cc(S(=O)(=O)n3ccc4cc(OC)ccc43)ccc2Cl)CC1.Cl.Cl [Example 18, 1-[4-Chloro-3-(4-ethylpiperazin-1-ylmethyl)benzenesulfonyl]-5-methoxy-1H-indole dihydrochloride]
Human 5-HT6 receptor; 100 nM test compound
  inhibition at 0.1 µM: 55.7%
other
  melting point: 209.5 to 211 °C

## CCN1CCN(Cc2cc(S(=O)(=O)n3cc(Br)c4cc(OC)ccc43)ccc2Cl)CC1.Cl.Cl
other
  melting point: 216.9 to 219.7 °C

## CCN1CCN(Cc2cc(S(=O)(=O)n3ccc4cc(F)ccc43)ccc2Br)CC1 [Example 4, 1-[4-Bromo-3-(4-ethylpiperazin-1-ylmethyl)benzenesulfonyl]-5-fluoro-1H-indole]
Human 5-HT6 receptor; 100 nM test compound
  inhibition at 0.1 µM: 62.5%
other
  melting point: 92.2 to 93.9 °C

## CCN1CCN(Cc2cc(S(=O)(=O)n3ccc4c(Cl)cccc43)ccc2Cl)CC1.Cl.Cl [Example 19, 1-[4-Chloro-3-(4-ethylpiperazin-1-ylmethyl)benzenesulfonyl]-4-chloro-1H-indole dihydrochloride]
Human 5-HT6 receptor; 100 nM test compound
  inhibition at 0.1 µM: 82%
other
  melting point: 205.9 to 207.2 °C

## COc1ccc2c(ccn2S(=O)(=O)c2ccc(Br)c(CN3CCN(C)CC3)c2)c1 [Example 2, 1-[4-Bromo-3-(4-methylpiperazin-1-ylmethyl)benzenesulfonyl]-5-methoxy-1H-indole]
other
  melting point: 115.2 to 120 °C

## COc1ccc2c(c1)c(C)cn2S(=O)(=O)c1ccc(C)c(CN2CCN(C)CC2)c1.Cl.Cl
other
  melting point: 190.32 °C

## CN1CCN(Cc2cc(S(=O)(=O)n3ccc4ccccc43)ccc2Br)CC1.Cl.Cl [Example 21, 1-[4-Bromo-3-(4-methylpiperazin-1-ylmethyl)benzenesulfonyl]-1H-indole dihydrochloride]
Human 5-HT6 receptor; 100 nM test compound
  inhibition at 0.1 µM: 88.8%
other
  melting point: 214.1 to 216 °C

## COc1ccc2c(c1)c(Br)cn2S(=O)(=O)c1ccc(Cl)c(CN2CCN(C)CC2)c1.Cl.Cl
other
  melting point: 195.4 to 199.3 °C

## CN1CCN(Cc2cc(S(=O)(=O)n3ccc4cc(Br)ccc43)ccc2Br)CC1.Cl.Cl
other
  melting point: 208.2 to 209.2 °C

## CCN1CCN(Cc2cc(S(=O)(=O)n3ccc4cc(OC)ccc43)ccc2C)CC1.Cl.Cl
other
  melting point: 160.94 °C

## CCN1CCN(Cc2cc(S(=O)(=O)n3cc(C)c4cc(OC)ccc43)ccc2Cl)CC1.Cl.Cl [Example 30, 1-[4-Chloro-3-(4-ethylpiperazin-1-ylmethyl)benzenesulfonyl]-5-methoxy-3-methyl-1H-indole dihydrochloride]
Human 5-HT6 receptor; 100 nM test compound
  inhibition at 0.1 µM: 68%
other
  melting point: 217.5 to 220.8 °C

## CN1CCN(Cc2cc(S(=O)(=O)n3ccc4c(Cl)cccc43)ccc2Cl)CC1.Cl.Cl [Example 20, 1-[4-Chloro-3-(4-methylpiperazin-1-ylmethyl)benzenesulfonyl]-4-chloro-1H-indole dihydrochloride]
Human 5-HT6 receptor; 100 nM test compound
  inhibition at 0.1 µM: 85.2%
other
  melting point: 242.7 to 244.3 °C

## CN1CCN(Cc2cc(S(=O)(=O)n3ccc4cc(F)ccc43)ccc2Cl)CC1.Cl.Cl [Example 14, 1-[4-Chloro-3-(4-methylpiperazin-1-ylmethyl)benzenesulfonyl]-5-fluoro-1H-indole dihydrochloride]
Human 5-HT6 receptor; 100 nM test compound
  inhibition at 0.1 µM: 73%
other
  melting point: 220.2 to 221.3 °C

## CCN1CCN(Cc2cc(S(=O)(=O)n3ccc4cc(OC)ccc43)ccc2Br)CC1 [Example 3, 1-[4-Bromo-3-(4-ethylpiperazin-1-ylmethyl)benzenesulfonyl]-5-methoxy-1H-indole]
Human 5-HT6 receptor; 100 nM test compound
  inhibition at 0.1 µM: 50.5%
other
  melting point: 196.1 to 198.6 °C

## CN1CCN(Cc2cc(S(=O)(=O)n3ccc4cc(Br)ccc43)ccc2Cl)CC1.Cl.Cl
other
  melting point: 214.7 to 215.6 °C

## COc1ccc2c(ccn2S(=O)(=O)c2ccc(C)c(CN3CCN(C)CC3)c2)c1.Cl.Cl [Example 24, 1-[4-methyl-3-(4-methylpiperazin-1-ylmethyl)benzenesulfonyl]-5-methoxy-1H-indole dihydrochloride]
Human 5-HT6 receptor; 100 nM test compound
  inhibition at 0.1 µM: 62.2%
other
  melting point: 198.1 to 199.3 °C

## CN1CCN(Cc2cc(S(=O)(=O)n3ccc4ccccc43)ccc2Cl)CC1.Cl.Cl [Example 13, 1-[4-Chloro-3-(4-methylpiperazin-1-ylmethyl)benzenesulfonyl]-1H-indole dihydrochloride]
Human 5-HT6 receptor; 100 nM test compound
  inhibition at 0.1 µM: 83.3%
other
  melting point: 210.6 to 213.9 °C

## CCN1CCN(Cc2cc(S(=O)(=O)n3ccc4cc(Br)ccc43)ccc2Br)CC1.Cl.Cl [Example 37, 1-[4-Bromo-3-(4-ethylpiperazin-1-ylmethyl)benzenesulfonyl]-5-bromo-1H-indole dihydrochloride]
Human 5-HT6 receptor; 100 nM test compound
  inhibition at 0.1 µM: 55.9%
other
  melting point: 205.1 to 207.1 °C

## CCN1CCN(Cc2cc(S(=O)(=O)n3cc(C)c4cc(OC)ccc43)ccc2Br)CC1.Cl.Cl
other
  melting point: 211.3 to 212.1 °C
